The record followed here is patent US10882860B2, “Treatment of osteoarthritis” (Samumed, LLC, priority 2015, dated 2021).

Common to all, as to format: physicochemical
Data set [1] in a line: Competitive slurry experiments between polymorph forms (thermodynamic stability). The settings on record: for most stable form in competitive slurry: 15 forms mixed (10 mg each), RT and 50° C., 3-5 days. How it is done:
In order to find out the thermodynamic stability between the different forms, several competitive slurry experiments were carried out. Form 1, Form 2, Form 2*, Form 3, Form 4, Form 4*, Form 4**, Form 5, Form 7, Form 8, Form 9, Form 10, Form 11, Form 11*, and Form 13 (10 mg for each) was mixed and slurried in 2 mL of solvent at both RT and 50° C. The solids were slurried for 3-5 days and then analyzed by XRD.
In order to find out the thermodynamic stability between Form 13 and Form 9, several competitive slurry experiments were carried out. 15 mg of Form 1, Form 9 and Form 13 solid were mixed in 1 mL of toluene, IPAc, and n-butyl acetate, and slurried for 3 days at RT and 50° C.
The residual solid was analyzed by XRD.

Data set [2] can be described thus: Dynamic vapor sorption (DVS) and exposure to humidity/air of solid forms. How it is done:
The hydrate lost its water below 30% RH.
The purity of the Form 13 sample was 98.8%; the KF of an undried Form 13 sample was 35.7%.
Solvates 1 and 2 solids were exposed to air overnight, and then analyzed by XRD. After the analysis, the solids were dried at 50° C. under vacuum, and then analyzed by XRD again.

A short description of data set [3]: Slurry experiments in various solvents (polymorph screen). How it is done:
Slurry experiments in various solvents were performed. Approximately 30-80 mg of the starting solid (a non-stoichiometric hydrate of Form 1 having between 1% and about 20% by weight water) was slurried in 39 different solvents (pure and binary solvents; the ratio of organic solvent/water (V/V) was 95%/5%) at RT and 50° C. for 5 days. Three solvates, […], and eleven non-solvated forms were identified. […] XRD of both wet and dry samples were scanned (FIG. 12A (dry sample)).
The slurry experiments identified 3 solvated forms from wet samples (Solvates 1, 2, and 3); 2 non-stoichiometric hydrates of Form 1 (Forms 12 and 13); and 11 non-solvated forms (Forms 1-11). In some instances, similar XRD scans with minor differences were obtained. These were considered to be part of the same class (e.g., the same form). For example, XRD scans of Form 2 and Form 2* were similar and were considered to belong to the same class. The solvated forms were obtained from wet sample analysis; after drying, the sample indicated a different XRD.

Data set [4] in a line: Solubility of the starting solid by the gravimetric method. The settings on record: for solubility: thermodynamic from solid.
[5] abbreviates: slurry in EtOH/water (5% water), 50° C.
Where [6] appears, read: slurry in n-Butyl acetate, 50° C.
Where [7] appears, read: slurry in n-Propanol/water (5% water), 50° C.
The mark [8] stands for this setting: slurry in DMSO/water (5% water), 50° C.
Setting [9] is: slurry in DMSO/water (5% water), RT.
Where [10] appears, read: slurry in DMF/water (5% water), 50° C.
The mark [11] stands for this setting: slurry in DMF/water (5% water), RT.

Molecules are shown by their SMILES. ≈ marks a conversion by molar mass, not a printed value. Read-outs that look alike come from different tables or passages of the source. Marks after values point to notes of the source that are not given here.

Turning to `CC(C)CC(=O)Nc1cncc(-c2ccc3[nH]nc(-c4nc5c(-c6cccc(F)c6)cncc5[nH]4)c3c2)c1` [Form 1, Form 9 and Form 13], the “Form after 3 days; wet/dry” value in data set [1] (50° C., IPAc) is given as “Form 9/Form 9”; in data set [1] (50° C., Toluene), “Form 9 + Form 13/Form 9 + Form 1”; in data set [1] (50° C., n-Butyl acetate), “Form 9 + Form 13/Form 9 + Form 1”; in data set [1] (RT, IPAc), “Form 9 + Form 13/Form 9 + Form 1”; in data set [1] (RT, Toluene) it was “Form 13/Form 1”; in data set [1] (RT, n-Butyl acetate) it was “Form 9 + Form 13/Form 9 + Form 1”.

`CC(C)CC(=O)Nc1cncc(-c2ccc3[nH]nc(-c4nc5c(-c6cccc(F)c6)cncc5[nH]4)c3c2)c1` [Form 1]: the “form change when exposed to air” value in data set [2] (exposed to air) is given as “converts to Form 13”.

For the molecule `CC(C)CC(=O)Nc1cncc(-c2ccc3[nH]nc(-c4nc5c(-c6cccc(F)c6)cncc5[nH]4)c3c2)c1` [Form 4], the “most stable form in competitive slurry” value in data set [1] (EA) is recorded as “most stable”.

Take `CC(C)CC(=O)Nc1cncc(-c2ccc3[nH]nc(-c4nc5c(-c6cccc(F)c6)cncc5[nH]4)c3c2)c1` [Form 9]: the “Dry (solid form by XRD after slurry)” value is recorded as “Form 9” in data set [3] (setting [5]); “Form 9” in data set [3] (slurry in IPAc, 50° C.); “Form 9” in data set [3] (slurry in n-Butanol, 50° C.); “Form 9” in data set [3] (slurry in n-Butanol, RT); “Form 9” in data set [3] (setting [6]); “Form 9” in data set [3] (setting [7]). Besides, the “Wet (solid form by XRD after slurry)” value is on record as “Form 9” in data set [3] (setting [5]); “Form 9” in data set [3] (slurry in IPAc, 50° C.); “Form 9” in data set [3] (slurry in n-Butanol, 50° C.); “Form 9” in data set [3] (slurry in n-Butanol, RT); “Form 9” in data set [3] (setting [6]); “Form 9” in data set [3] (setting [7]). Moreover, the “change of form before and after the DVS scan” value in data set [2] (XRD before/after DVS) is “did not change its form”.

Regarding `CC(C)CC(=O)Nc1cncc(-c2ccc3[nH]nc(-c4nc5c(-c6cccc(F)c6)cncc5[nH]4)c3c2)c1` [Form 10], the “Dry (solid form by XRD after slurry)” value in data set [3] (slurry in DMSO, 50° C.) is given as “Form 10*”; in data set [3] (slurry in DMSO, RT) it was “Form 10”; in data set [3] (setting [8]) it was “Form 10”; in data set [3] (setting [9]) it was “Form 10”. Further, the “Wet (solid form by XRD after slurry)” value is reported as “amorphous” in data set [3] (slurry in DMSO, 50° C.); “amorphous” in data set [3] (slurry in DMSO, RT); “amorphous” in data set [3] (setting [8]); “amorphous” in data set [3] (setting [9]).

On to `CC(C)CC(=O)Nc1cncc(-c2ccc3[nH]nc(-c4nc5c(-c6cccc(F)c6)cncc5[nH]4)c3c2)c1` [Form 11], for which the “Dry (solid form by XRD after slurry)” value in data set [3] (slurry in DMF, 50° C.) is “Form 11*”; in data set [3] (slurry in DMF, RT), “Form 11”; in data set [3] (setting [10]) it was “Form 11”; in data set [3] (setting [11]), “Form 11”. Further, the “Wet (solid form by XRD after slurry)” value is reported as “Form 11” in data set [3] (slurry in DMF, 50° C.); “Form 11” in data set [3] (slurry in DMF, RT); “Form 11” in data set [3] (setting [10]); “Form 11” in data set [3] (setting [11]).

On to `CC(C)CC(=O)Nc1cncc(-c2ccc3[nH]nc(-c4nc5c(-c6cccc(F)c6)cncc5[nH]4)c3c2)c1` [Form 13], for which, in data set [1] (water), the “most stable form in competitive slurry” value is reported as “most stable”.

Consider `CC(C)CC(=O)Nc1cncc(-c2ccc3[nH]nc(-c4nc5c(-c6cccc(F)c6)cncc5[nH]4)c3c2)c1` [Solvate 1], for which, in data set [2], the “form change after exposure to air overnight (XRD)” value is “converted to low crystallinity”.

Regarding `CC(C)CC(=O)Nc1cncc(-c2ccc3[nH]nc(-c4nc5c(-c6cccc(F)c6)cncc5[nH]4)c3c2)c1` [Solvate 2], the “form change after exposure to air overnight (XRD)” value in data set [2] was “changed a little”.

Usually solubility stands for the concentration that dissolves in the medium under given conditions. Consider `CC(C)CC(=O)Nc1cncc(-c2ccc3[nH]nc(-c4nc5c(-c6cccc(F)c6)cncc5[nH]4)c3c2)c1` [starting solid], for which the “Solubility (gravimetric method)” value in data set [4] (RT and 50° C., all solvents tested except DMF and DMSO) is listed as “low solubility”. Moreover, the solubility in data set [4] (organic solvent or mixture, Acetic acid, 50° C., read-out: Solubility at 50° C.) came out at 3000 µg/mL (≈ 5930 µM); in data set [4] (organic solvent or mixture, Acetone, 50° C., read-out: Solubility at 50° C.), 1000 µg/mL (≈ 1980 µM); in data set [4] (organic solvent or mixture, Acetone, RT, read-out: Solubility at RT), 1000 µg/mL (≈ 1980 µM); in data set [4] (organic solvent or mixture, DCM, 50° C., read-out: Solubility at 50° C.), 2000 µg/mL (≈ 3960 µM); in data set [4] (organic solvent or mixture, DCM, RT, read-out: Solubility at RT) it was 2000 µg/mL (≈ 3960 µM); in data set [4] (organic solvent or mixture, DMF, 50° C., read-out: Solubility at 50° C.), 16000 µg/mL (≈ 31600 µM). For the same molecule, the solubility in data set [4] (organic solvent or mixture, DMF, RT, read-out: Solubility at RT) came out at 12000 µg/mL (≈ 23700 µM); in data set [4] (organic solvent or mixture, EA, 50° C., read-out: Solubility at 50° C.), 1000 µg/mL (≈ 1980 µM); in data set [4] (organic solvent or mixture, EA, RT, read-out: Solubility at RT), 1000 µg/mL (≈ 1980 µM); in data set [4] (organic solvent or mixture, EtOH, 50° C., read-out: Solubility at 50° C.) it was 2000 µg/mL (≈ 3960 µM); in data set [4] (organic solvent or mixture, EtOH, RT, read-out: Solubility at RT) it was 2000 µg/mL (≈ 3960 µM); in data set [4] (organic solvent or mixture, IPA, 50° C., read-out: Solubility at 50° C.) it was 5000 µg/mL (≈ 9890 µM). Besides, the solubility in data set [4] (organic solvent or mixture, IPA, RT, read-out: Solubility at RT) came out at 2000 µg/mL (≈ 3960 µM); in data set [4] (organic solvent or mixture, MEK, 50° C., read-out: Solubility at 50° C.), 1000 µg/mL (≈ 1980 µM); in data set [4] (organic solvent or mixture, MEK, RT, read-out: Solubility at RT) it was 1000 µg/mL (≈ 1980 µM); in data set [4] (organic solvent or mixture, MIBK, 50° C., read-out: Solubility at 50° C.), 1000 µg/mL (≈ 1980 µM); in data set [4] (organic solvent or mixture, MIBK, RT, read-out: Solubility at RT), 1000 µg/mL (≈ 1980 µM); in data set [4] (organic solvent or mixture, MeOH, 50° C., read-out: Solubility at 50° C.), 1000 µg/mL (≈ 1980 µM). Also, the solubility in data set [4] (organic solvent or mixture, MeOH, RT, read-out: Solubility at RT) was 1000 µg/mL (≈ 1980 µM); in data set [4] (organic solvent or mixture, Toluene, 50° C., read-out: Solubility at 50° C.), 1000 µg/mL (≈ 1980 µM); in data set [4] (organic solvent or mixture, Toluene, RT, read-out: Solubility at RT), 1000 µg/mL (≈ 1980 µM); in data set [4] (organic solvent or mixture, n-Butanol, 50° C., read-out: Solubility at 50° C.), 2000 µg/mL (≈ 3960 µM); in data set [4] (organic solvent or mixture, n-Butanol, RT, read-out: Solubility at RT), 1000 µg/mL (≈ 1980 µM); in data set [4] (organic solvent or mixture, n-Propanol, 50° C., read-out: Solubility at 50° C.) it was 2000 µg/mL (≈ 3960 µM). The solubility in data set [4] (organic solvent or mixture, n-Propanol, RT, read-out: Solubility at RT) is 1000 µg/mL (≈ 1980 µM); in data set [4] (water, 50° C., read-out: Solubility at 50° C.), 1000 µg/mL (≈ 1980 µM); in data set [4] (water, RT, read-out: Solubility at RT), 1000 µg/mL (≈ 1980 µM).
